From PubChem BioAssay AID1963961 (Molecular Pharmacology Branch, DTP, NCI, 2024)
Several values for one entry are separate records, joined by “and”; a condition that tells them apart may be missing. Identical values can stand only once.

Tested on: K98450-129-R-PDC multicell spheroids, viability
Assay: Anticancer human tumor K98450-129-R-PDC patient-derived colon adenocarcinoma cell line growth inhibition [PI3K]
Conditions: for viability, T/C: stronger effect = lower value; active = viability on the fitted dose curve at most 10% of control; inactive = the rest
Text: Combinatorial screen of targeted agents with the PI3K inhibitors inavolisib, alpelisib, duvelisib, and copanlisib in multi-cell type tumor spheroids
A high-throughput screen of multi-cell type tumor spheroids was designed to identify active combinations of targeted small molecules and PI3K pathway inhibitors. Complex spheroids include a stromal component modeled by human endothelial cells (HUVEC) and fibroblasts modeled by human mesenchymal stem cells (MSCs). The concentration ranges selected for each drug and investigational agent were based upon clinically achievable concentrations if the clinical Cmax of the agent was known.
Compounds. The drugs and investigational agents: inavolisib (NSC800729), alpelisib (NSC765974), duvelisib (NSC772469), copanlisib (NSC816437), ipatasertib (NSC767898), afuresertib (NSC778305), talazoparib (NSC767125), sapanisertib (NSC764658), selumetinib (NSC741078), tovorafenib (DAY101, NSC766906), vemurafenib (NSC761431), ravoxertinib (NSC781343), sotorasib (NSC818433), MRTX1133 (NSC 836407), abemaciclib (NSC 768073), palbociclib (NSC758247), venetoclax (NSC 766270), SY5609 (NSC837396), enzalutamide (NSC755605), and darolutamide (NSC825331), were obtained from the National Cancer Institute (NCI) Developmental Therapeutics Program Chemical Repository. The FDA-approved anticancer drug set is available from the NCI Developmental Therapeutics Program. […] The stock solutions were prepared in dimethyl sulfoxide (DMSO, Sigma-Aldrich, St. Louis, MO, cat. D2650) at 800-fold the tested concentration and stored at -70 degrees C prior to their use. All drugs and investigational agents were tested over a range starting from a high concentration at or near the clinical Cmax and decreasing in half-log increments. If the clinical Cmax for an agent had not been determined, the highest concentration tested was 10 microM.
Cell Culture. All cells were maintained in an incubator at 37 degrees C and 5% CO2 with 95% humidity. The PDC lines were cultured according to standard operating procedures established by the NCI PDMR (https://pdmr.cancer.gov/sops/default.htm). All PDCs were thawed and cultured in Matrigel-coated flasks prepared with a working solution of 1X Ham's F-12 nutrient mix, without supplementation (Invitrogen, Waltham, MA, cat. 11765054), 100 U/mL penicillin-streptomycin (Invitrogen, cat. 15140122), and 2.5% Matrigel (Corning Inc., Corning, NY, cat. 354248) for the first three passages. The 354836-022-R-J1-PDC, 475296-252-R-J1-PDC, and 997726-040-R-J2-PDC lines were cultured in 6A media, which includes advanced DMEM/F-12 (Thermo Fisher Scientific, cat. 12634028), 10 mM HEPES (Thermo Fisher Scientific, cat. 15630080), 1X GlutaMAX supplement (Thermo Fisher Scientific, cat. 35050061), 0.1 mg/mL primocin (InvivoGen, San Diego, CA, cat. ant-pm-2), 10% defined fetal bovine serum, heat inactivated (HyClone Laboratories Inc., Logan, UT, cat. SH30070.03HI), 50% L-WRN conditioned media (ATCC, cat. CRL-3276), 1.25 mM N-Acetyl-L-cysteine (Sigma-Aldrich, cat. A9165), 10 mM nicotinamide (Sigma-Aldrich, cat. N0636), 1X B-27 supplement (Thermo Fisher Scientific, cat. 17504044), 1X N-2 supplement (Thermo Fisher Scientific, cat. 17502048), and 10 microM Y-27632 dihydrochloride (Tocris Bioscience, Bristol, United Kingdom, cat. 1254). The 624824-186-R-J2-PDC line was cultured in 6C/Colon 1B media, which includes all 6A media components plus 50 ng/mL human EGF recombinant protein (Thermo Fisher Scientific, cat. PHG0311). […]

[1] = curve of first compound, second compound 0.0316 µM
[2] = curve of first compound, second compound 0.1 µM
[3] = curve of first compound, second compound 0.316 µM
[4] = curve of first compound, second compound 1 µM
[5] = curve of first compound, second compound 3.16 µM
[6] = curve of first compound, second compound 10 µM
[7] = second compound 0.0316 µM, first compound 0.0316 µM
[8] = second compound 0.0316 µM, first compound 0.1 µM
[9] = second compound 0.0316 µM, first compound 0.316 µM
[10] = second compound 0.0316 µM, first compound 1 µM
[11] = second compound 0.0316 µM, first compound 3.16 µM
[12] = second compound 0.0316 µM, first compound 10 µM
[13] = second compound 0.1 µM, first compound 0.0316 µM
[14] = second compound 0.1 µM, first compound 0.1 µM
[15] = second compound 0.1 µM, first compound 0.316 µM
[16] = second compound 0.1 µM, first compound 1 µM
[17] = second compound 0.1 µM, first compound 3.16 µM
[18] = second compound 0.1 µM, first compound 10 µM
[19] = second compound 0.316 µM, first compound 0.0316 µM
[20] = second compound 0.316 µM, first compound 0.1 µM
[21] = second compound 0.316 µM, first compound 0.316 µM
[22] = second compound 0.316 µM, first compound 1 µM
[23] = second compound 0.316 µM, first compound 3.16 µM
[24] = second compound 0.316 µM, first compound 10 µM
[25] = second compound 1 µM, first compound 0.0316 µM
[26] = second compound 1 µM, first compound 0.1 µM
[27] = second compound 1 µM, first compound 0.316 µM
[28] = second compound 1 µM, first compound 1 µM
[29] = second compound 1 µM, first compound 3.16 µM
[30] = second compound 1 µM, first compound 10 µM
[31] = second compound 3.16 µM, first compound 0.0316 µM
[32] = second compound 3.16 µM, first compound 0.1 µM
[33] = second compound 3.16 µM, first compound 0.316 µM
[34] = second compound 3.16 µM, first compound 1 µM
[35] = second compound 3.16 µM, first compound 3.16 µM
[36] = second compound 3.16 µM, first compound 10 µM
[37] = second compound 10 µM, first compound 0.0316 µM
[38] = second compound 10 µM, first compound 0.1 µM
[39] = second compound 10 µM, first compound 0.316 µM
[40] = second compound 10 µM, first compound 1 µM
[41] = second compound 10 µM, first compound 3.16 µM
[42] = second compound 10 µM, first compound 10 µM
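Note: spheroids exposed to agents for seven days before read-out.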

CNC(=O)c1ccc(N2C(=S)N(c3ccc(C#N)c(C(F)(F)F)c3)C(=O)C2(C)C)cc1F + CC(Nc1ncnc2nc[nH]c12)c1cc2cccc(Cl)c2c(=O)n1-c1ccccc1
inactive: viability, T/C [7] 109% | viability, T/C [8] 100% | viability, T/C [9] 104% | viability, T/C [10] 83.1% | viability, T/C [11] 104% | viability, T/C [12] 88.9% | viability, T/C [13] 116% | viability, T/C [14] 94% | viability, T/C [15] 106% | viability, T/C [16] 108% | viability, T/C [17] 88.8% | viability, T/C [18] 101% | viability, T/C [19] 104% | viability, T/C [20] 99.3% | viability, T/C [21] 97.2% | viability, T/C [22] 92.3% | viability, T/C [23] 112% | viability, T/C [24] 109% | viability, T/C [25] 92.8% | viability, T/C [26] 90.7% | viability, T/C [27] 95.5% | viability, T/C [28] 102% | viability, T/C [29] 99.8% | viability, T/C [30] 97.1% | viability, T/C [31] 83.1% | viability, T/C [32] 95.4% | viability, T/C [33] 82% | viability, T/C [34] 83.1% | viability, T/C [35] 87.6% | viability, T/C [36] 96.6% | viability, T/C [37] 76.8% | viability, T/C [38] 93.4% | viability, T/C [39] 83% | viability, T/C [40] 96.1% | viability, T/C [41] 109% | viability, T/C [42] 88%
> 10 µM: IC50 [1] | IC50 [2] | IC50 [3] | IC50 [4] | IC50 [5] | IC50 [6]

C=CC(=O)N1CCN(c2nc(=O)n(-c3c(C)ccnc3C(C)C)c3nc(-c4c(O)cccc4F)c(F)cc23)C(C)C1 (stereo not given) + CC(Nc1ncnc2nc[nH]c12)c1cc2cccc(Cl)c2c(=O)n1-c1ccccc1
5.92 µM: IC50 [3]
3.4 µM: IC50 [2]
5.34 µM: IC50 [1]
inactive: viability, T/C [7] 94.3% | viability, T/C [8] 96.5% | viability, T/C [9] 79.7% | viability, T/C [10] 74.1% | viability, T/C [11] 53.3% | viability, T/C [12] 44.4% | viability, T/C [13] 106% | viability, T/C [14] 99.7% | viability, T/C [15] 89.2% | viability, T/C [16] 67.9% | viability, T/C [17] 52.4% | viability, T/C [18] 36.5% | viability, T/C [19] 111% | viability, T/C [20] 105% | viability, T/C [21] 92.1% | viability, T/C [22] 68.5% | viability, T/C [23] 54% | viability, T/C [24] 46.9% | viability, T/C [25] 113% | viability, T/C [26] 104% | viability, T/C [27] 89.4% | viability, T/C [28] 73.9% | viability, T/C [29] 46.9% | viability, T/C [30] 42% | viability, T/C [31] 93.5% | viability, T/C [32] 98.1% | viability, T/C [33] 96.9% | viability, T/C [34] 60.5% | viability, T/C [35] 44.5% | viability, T/C [36] 36.6% | viability, T/C [37] 81.2% | viability, T/C [38] 78.4% | viability, T/C [39] 84% | viability, T/C [40] 67.1% | viability, T/C [41] 39.4% | viability, T/C [42] 32.8%
3.54 µM: IC50 [4]
1.84 µM: IC50 [5]
2.02 µM: IC50 [6]

CCN1CCN(Cc2ccc(Nc3ncc(F)c(-c4cc(F)c5nc(C)n(C(C)C)c5c4)n3)nc2)CC1
inactive: viability, T/C (compound 0.00316 µM) 108% [middle of 4 runs] | viability, T/C (compound 0.01 µM) 99.3% [middle of 4 runs] | viability, T/C (compound 0.0316 µM) 106% and 101% (2×) and 97% | viability, T/C (compound 0.1 µM) 94.1% [middle of 4 runs] | viability, T/C (compound 0.316 µM) 86.5% [middle of 4 runs] | viability, T/C (compound 1 µM) 87.5% [middle of 4 runs]
> 1 µM: IC50 (curve of compound)

CC(Cn1ccc(-c2ccc(C#N)c(Cl)c2)n1)NC(=O)c1cc(C(C)O)[nH]n1 (stereo not given) + CC(Nc1ncnc2nc[nH]c12)c1cc2cccc(Cl)c2c(=O)n1-c1ccccc1
> 10 µM: IC50 [1] | IC50 [2] | IC50 [3] | IC50 [4] | IC50 [5] | IC50 [6]
inactive: viability, T/C [7] 119% | viability, T/C [8] 101% | viability, T/C [9] 87.3% | viability, T/C [10] 92.5% | viability, T/C [11] 102% | viability, T/C [12] 101% | viability, T/C [13] 106% | viability, T/C [14] 113% | viability, T/C [15] 107% | viability, T/C [16] 96.5% | viability, T/C [17] 98.5% | viability, T/C [18] 103% | viability, T/C [19] 99.5% | viability, T/C [20] 109% | viability, T/C [21] 92.5% | viability, T/C [22] 92.3% | viability, T/C [23] 104% | viability, T/C [24] 99% | viability, T/C [25] 94.7% | viability, T/C [26] 95.2% | viability, T/C [27] 91.7% | viability, T/C [28] 99.1% | viability, T/C [29] 93.4% | viability, T/C [30] 88% | viability, T/C [31] 72.7% | viability, T/C [32] 86.1% | viability, T/C [33] 86.7% | viability, T/C [34] 80.3% | viability, T/C [35] 103% | viability, T/C [36] 84% | viability, T/C [37] 84.1% | viability, T/C [38] 87.4% | viability, T/C [39] 83% | viability, T/C [40] 88.7% | viability, T/C [41] 81.8% | viability, T/C [42] 84.8%

COc1c(OCCCN2CCOCC2)ccc2c3n(c(=NC(=O)c4cnc(N)nc4)nc12)CCN3
> 1 µM: IC50 (compound alone, run of 04/25/2023)
inactive: viability, T/C (compound 0.00316 µM) 97.8% [middle of 8 runs] | viability, T/C (compound 0.01 µM) 101% [middle of 8 runs] | viability, T/C (compound 0.0316 µM) 97.6% [middle of 8 runs] | viability, T/C (compound 0.1 µM) 77.9% [middle of 8 runs] | viability, T/C (compound 0.316 µM) 65.8% [middle of 8 runs] | viability, T/C (compound 1 µM) 54.2% [middle of 8 runs]
